# Key:
# [1] = tested on: scopolamine-induced amnesia rats; assay: Passive avoidance test, scopolamine-induced amnesia (acute model); format: in vivo, Wistar rats; settings: Mean ± SEM; for Latency time: time to enter darker compartment
# Experimental: In the acute model, the rats were trained for Morris water maze (MWM) and passive avoidance test (PAT) tasks in the first 4 days. On the 5th day, 30 min after scopolamine administration, respective treatments were given to all the groups. Fifteen minutes thereafter, the test trials were conducted in MWM and PAT.
# (§1) The passive avoidance apparatus consists of a larger illuminated compartment and a smaller dark compartment. Each consists of a square box, with a floor grid of 50 × 50 cm and wooden walls of 35-cm height in larger compartment. Larger box was illuminated by 15 W Philips CFL lamp. A smaller dark compartment of 15 × 15 cm with an electrified floor is connected to a constant current stimulator. An opening 6 × 6 cm in between the two compartments was closed using a transparent plexiglass sliding door. The test procedure was carried out in three phases, exploration, learning, and retention (Praveenkumar [2019]).
# (§2) First day, the animal was placed in the center of the illuminated larger compartment facing away from the entrance to the small darker compartment and allowed to explore the apparatus, i.e., both compartments for 3 min. Total time spent in the larger and smaller compartments and the number of crossings (from larger to smaller compartments and vice versa; a measure of exploratory behavior) were noted. On the second day, animal was placed in the illuminated larger compartment facing away from the entrance to the darker compartment. Once the animal entered the darker compartment, the entrance to the larger compartment was closed, and three strong electric foot shocks (50 Hz, 0.5 mA, 2 s) with 10-s intervals were applied. On the third day, rats were placed in the illuminated larger compartment and allowed to explore both the compartments for 3 min. The parameters assessed are latency time to enter into darker compartment, time spent in the darker and brighter compartments, and the number of crossings between the compartments.
# [2] = tested on: ICV colchicine-induced dementia rats; assay: Passive avoidance test, ICV colchicine-induced dementia (chronic model); format: in vivo, Wistar rats; settings: for Retention test, Latency time, 1st / Retention test, No. of crossings, 1st / Retention test, Time spent in darker chamber, 1st: 1st retention test, before colchicine administration; for Retention test, Latency time, 2nd / Retention test, No. of crossings, 2nd / Retention test, Time spent in darker chamber, 2nd: 2nd retention test, day 17; for Retention test, No. of crossings, 3rd / Retention test, Latency time, 3rd / Retention test, Time spent in darker chamber, 3rd: 3rd retention test, day 23; for Acquisition test, 2nd day: colchicine model
# Experimental: In the chronic model, the rats were trained for MWM and PAT tasks for the first 4 days followed by intracerebroventricular (i.c.v.) administration of colchicine on day 6. After establishing dementia on day 10 of the colchicine administration, the drug treatment was initiated from day 11 to 24. The effects of different drug treatments on dementia were assessed on days 14 and 21. On these particular days, the swim test was performed 15 min after the administration of different treatments and escape latencies; residence time and peripheral swim time were recorded (Nampoothiri [2017]). The retention trials for PAT on day 17 and 23 were performed on days 17 and 23, 15 min after the administration of the drug.
# On the 6th day, surgery was performed as described (Bokare et al. [2018]). Rat was anesthetized with sodium pentobarbital (45 mg/kg, i.p.) and positioned in stereotaxic apparatus. The head was positioned in a frame, and a midline sagittal incision was made in the scalp. Two holes were drilled through the skull at coordinates (0.8 mm posterior to bregma, 1.8 mm lateral to the sagittal suture, and 3.6 mm beneath the cortical surface) to place the injection cannula. Rats were intracerebroventricularly infused with either artificial cerebrospinal fluid (ACSF; in mM: 147 NaCl, 2.9 KCl, 1.6 MgCl2, 1.7 CaCl2, and 2.2 dextrose) or 15 µg of colchicine in 5 µL ACSF using a Hamilton microsyringe positioned in the injection cannula. To promote back diffusion, the microsyringe was left in place for 2 min following injection. The scalp was then closed with a suture. After surgery, all animals received gentamicin (5 mg/kg, i.p.) to prevent sepsis. Special care was taken during the postoperative period to provide food and water inside the cage of the rat. In sham-operated rats, surgery was identical except for injection of the solution.
# as §1, §2
compound,measurement,setting,value
"CCN(C)C(=O)Oc1cccc([C@H](C)N(C)C)c1 [ORSM, rivastigmine]",Acquisition time,[1]; listed as SCP + ORSM,14.66 ± 2.61 s
same,No. of crossings,[1]; listed as SCP + ORSM,2.50 ± 0.85
same,Time spent in bright comp.,[1]; listed as SCP + ORSM,103.50 ± 16.38 s
same,Time spent in darker comp.,[1]; listed as SCP + ORSM,76.50 ± 16.38 s
same,Latency time,[1]; listed as SCP + ORSM,41.63 ± 15.66 a s
same,"Retention test, Latency time, 1st",[2]; listed as COL + ORSM,127.8 ± 21.13 s
same,"Retention test, No. of crossings, 1st",[2]; listed as COL + ORSM,1.83±0.54
same,"Retention test, Time spent in darker chamber, 1st",[2]; listed as COL + ORSM,38.5 ± 16.47 s
same,"Retention test, Latency time, 2nd",[2]; listed as COL + ORSM,90.55 ± 22.83 s
same,"Retention test, No. of crossings, 2nd",[2]; listed as COL + ORSM,3.00±0.63
same,"Retention test, Time spent in darker chamber, 2nd",[2]; listed as COL + ORSM,68 ± 23.51 s
same,"Retention test, No. of crossings, 3rd",[2],3.17±0.48
same,"Retention test, Latency time, 3rd",[2]; listed as COL + ORSM,48.83 ± 8.28 s
same,"Retention test, Time spent in darker chamber, 3rd",[2]; listed as COL + ORSM,81.33 ± 10.56 s
same,"Acquisition test, 2nd day",[2]; listed as COL + ORSM,8.91 ± 2.049
"CCN(C)C(=O)Oc1cccc([C@H](C)N(C)C)c1 [INRSM, rivastigmine]",Acquisition time,[1]; listed as SCP + INRSM,11.59 ± 2.37 s
same,No. of crossings,[1]; listed as SCP + INRSM,2.17 ± 0.54
same,Time spent in bright comp.,[1]; listed as SCP + INRSM,109.67 ± 11.65 s
same,Time spent in darker comp.,[1]; listed as SCP + INRSM,70.33 ± 11.65 s
same,Latency time,[1]; listed as SCP + INRSM,60.11 ± 16.82 a s
same,"Retention test, Latency time, 1st",[2]; listed as COL + INRSM,122.3 ± 13.32 s
same,"Retention test, No. of crossings, 1st",[2]; listed as COL + INRSM,2.67±0.56
same,"Retention test, Time spent in darker chamber, 1st",[2]; listed as COL + INRSM,49.5 ± 12.13 s
same,"Retention test, Latency time, 2nd",[2]; listed as COL + INRSM,101.8 ± 10.46 s
same,"Retention test, No. of crossings, 2nd",[2]; listed as COL + INRSM,3.50±0.56
same,"Retention test, Time spent in darker chamber, 2nd",[2]; listed as COL + INRSM,58.67 ± 10.25 s
same,"Retention test, No. of crossings, 3rd",[2],3.17±0.48
same,"Retention test, Latency time, 3rd",[2]; listed as COL + INRSM,77.17 ± 11.18 s
same,"Retention test, Time spent in darker chamber, 3rd",[2]; listed as COL + INRSM,67.17 ± 12.43 s
same,"Acquisition test, 2nd day",[2]; listed as COL + INRSM,11.07 ± 2.195
